Measured values as given in patent publication US20030207843A1, “Treatment of drug-resistant human immunodeficiency virus infection” (priority 1999, published 2003).
Where two headings read alike, the source gives them in different places.

Assays:
HIV-1LAI W88G = test: p24 reduction assay in MT-2 cells, W88G; assay type: cell-based; settings: for EC50: W88G
Procedure: (§1) Cells. MT-2 cells (AIDS Research and Reference Reagent Program, National Institute of Allergy and Infectious Diseases, National Institutes of Health) were maintained in RPMI 1640 supplemented with 10% fetal bovine serum (FBS; JRH Biosciences, Lenexa, Kans.), 10 mM HEPES buffer, 50 IU/ml penicillin and 50 μg/ml streptomycin.
(§2) Antiviral Susceptibility Assays. The antiviral activity of each compound was determined by inoculating MT-2 cells with HIV-1LAI at a multiplicity of infection (MOI) of 0.01 TCID50/cell, followed by incubation in the presence of three-fold serial drug dilutions (3 wells per dilution) (see Mellors, et. al., Antimicrob. Agents Chemother. 39:1087-1092). Five or seven days after infection, culture supernatants were harvested, lysed with 0.5% triton-X 100 and assayed for p24 antigen concentration using a commercial ELISA assay (DuPont, NEN Products, Wilmington, Del.). The antiviral activity of the compounds is expressed as the IC50, which is the concentration required to inhibit 50% of p24 antigen production. The fold-resistance of a test virus is calculated by dividing the IC50 of the test virus by the IC50 of the HIV-1LAI control virus.
(§3) Generation of Mutant Recombinant HIV-1. HIV-1 containing the desired mutations were generated by oligonucleotide directed mutagenesis (Altered Sites II, Promega) as previously described (Mellors, et. al., Molecular Pharm. 41:446-451). After mutagenesis, mutant RT was subcloned into the pxxHIV-1LAI cloning vector using the silent XmaI and XbaI restriction sites located at the 5′ and 3′ ends of RT. Clones were DNA sequenced to verify the presence of the desired mutation(s) and electroporated into MT-2 cells as described above to generate infectious mutant recombinant HIV-1.
(§4) Mutant RT was generated via oligonucleotide-directed mutagenesis and ligated into the pXXHIV-1LAI cloning vector. Cloning was facilitated by the presence of two silent restriction sites at the 5′ and 3′ ends (Xma1 and Xba1, respectively) of pXXHIV-1LAI RT. Infectious mutant recombinant HIV-1 was generated by electroporating MT-2 cells with mutated pXXHIV-1LAI clones. The presence of the desired mutations was verified by DNA sequencing.
(§5) Invention compounds were also evaluated against a panel of HIV-1LAI derived recombinants resistant to PFA and the PFA invention compounds, as shown in Table 7.

HIV-1LAI L74V = test: p24 reduction assay in MT-2 cells, L74V; assay type: cell-based; settings: for EC50: L74V; for Fold-resistance: L74V relative to wild type virus
Procedure: as §1, §2, §3, §4
(§6) The multi-drug resistant HIV-1 strains, 11163p1 and 11588p1, are human clinical isolates having the RT mutations indicated. HIV-1 strains treated with the lipid analogs of the present invention include wild type, e.g., xxLAI, and the like, single mutation, e.g., xxLAI MI 84V (resistant to 3TC), xxLAI L74V (resistant to ddI and ddC), xxLAI K65R (resistant to ddI, ddC, DAPD, DXG, tenofovir, and adefovir), xxLAI T215Y (resistant to AZT), and the like, double mutations, e.g., xxLAI M41 L/T215Y (resistant to AZT), xxLAI MI 84V/T215Y (resistant to 3TC and AZT), and the like, and multiple mutations, e.g., xxLAI 4XAZT ((D67N, K70R, T215Y, K219Q) resistant to AZT)), xxLAI 4XAZT/M184V ((D67N, K70R, M 184V, T215Y, K219Q) resistant to AZT and 3TC), xxLAI M5456-12 (AZT+NNRTI resistant: D67N, K70R, K103N, T215Y), xxLAI G2-3g (AZT/3TC co-resistant: M41L, D67N, M184V, H208Y, L210W, R211K, L214F, T215Y, 1293V, E297A), 11163 (multinucleoside resistant virsus: M41L, A62V, V751, F77L, K103N, F116Y, Q151M, Y181C, M184V), 11588 (multinucleoside resistant virsus: A62V, K65R, K70R, V751, F77L, F116Y, Q151M, M184V, K219Q), and the like.

HIV-1LAI M41L/T215Y = test: p24 reduction assay in MT-2 cells, M41L/T215Y; assay type: cell-based; settings: for EC50: M41L/T215Y; for Fold-resistance: M41L/T215Y relative to wild type virus
Procedure: as §1, §2, §3, §4, §6

HIV-1LAI M184V/T215Y = test: p24 reduction assay in MT-2 cells, M184V/T215Y; assay type: cell-based; settings: Table 1, MOI 0.01
Procedure: as §1, §2, §3
Mutant RT was generated via oligonucleotide-directed mutagenesis and ligated into the pXXHIV-1LAI cloning vector. Cloning was facilitated by the presence of two silent restriction sites at the 5′ and 3′ ends (Xma1 and Xba1, respectively) of pXXHIV-1LAI RT. […]

HIV-1LAI 4XAZT/K103N = test: p24 reduction assay in MT-2 cells, 4XAZT/K103N; assay type: cell-based; settings: for Fold-resistance: 4XAZT/K103N relative to wild type virus
Procedure: as §1, §2, §3, §4, §6

NL4-3 (wild type virus) = test: p24 reduction assay in MT-2 cells, NL4-3; assay type: cell-based, HIV-1
[1] = tested on: 9GC (multinucleoside resistant recombinant virus D67E, S68T, T69S[SA insert], T215Y); test: p24 reduction assay in MT-2 cells, virus 9GC; assay type: cell-based, HIV-1; settings: Table 4; for Fold-resistance: virus 9GC relative to wild type virus; for EC50: virus 9GC, mean ± SD
Procedure: as §1, §2
The MNR panel consisted of a virus containing the mutations V75I, F77L, F116Y and […], a virus containing the T69S[SA insert], and a clinical isolate carrying the classic MNR genotype (62V/751/77L/116Y/151M). Each of the PFA invention compounds retained potency against these viruses with fold resistance values of <2.

HIV-1LAI E89K = test: p24 reduction assay in MT-2 cells, E89K; assay type: cell-based; settings: Table 7; for EC50: E89K; for Fold-resistance: E89K relative to wild type virus
Procedure: as §1, §2, §3, §4, §5

[2] = tested on: HIV-1LAI 4XAZT/Q161L/H208Y; test: p24 reduction assay in MT-2 cells, 4XAZT/Q161L/H208Y; assay type: cell-based; settings: Table 7; for EC50: 4XAZTQ161L/H208Y; for Fold-resistance: 4XAZTQ161L/H208Y relative to wild type virus
Procedure: as §1, §2, §3, §4, §5

[3] = Table 1, AZT/K103N, MOI 0.01, read-out: EC50
[4] = Table 5, 4XAZT/K103N, mean ± SD, read-out: EC50
[5] = Table 7, W88G relative to wild type virus
[6] = Human immunodeficiency virus 1, MT2, Table 1, MOI 0.01
[7] = Human immunodeficiency virus 1, MT2

| Structure (SMILES) | EC50 (HIV-1LAI L74V; Table 1, MOI 0.01) | Fold-resistance (HIV-1LAI L74V; Table 3) | EC50 (HIV-1LAI L74V; Table 3, mean ± SD) | EC50 (HIV-1LAI M41L/T215Y; Table 1, MOI 0.01) | Fold-resistance (HIV-1LAI M41L/T215Y; Table 5) | EC50 (HIV-1LAI M41L/T215Y; Table 5, mean ± SD) | EC50 (HIV-1LAI M184V/T215Y) | EC50 (HIV-1LAI 4XAZT/K103N; [3]) | Fold-resistance (HIV-1LAI 4XAZT/K103N; Table 5) | EC50 (HIV-1LAI 4XAZT/K103N; [4]) | EC50 (NL4-3 (wild type virus); Table 4, mean ± SD) | Fold-resistance [1] | EC50 [1] | Fold-resistance (HIV-1LAI W88G; [5]) | EC50 (HIV-1LAI W88G; Table 7, read-out: EC50) | EC50 (HIV-1LAI E89K) | EC50 [2] | Fold-resistance [2] | Fold-resistance (HIV-1LAI E89K) | other results |
| --- | --- | --- | --- | --- | --- | --- | --- | --- | --- | --- | --- | --- | --- | --- | --- | --- | --- | --- | --- | --- |
| Cc1cn([C@H]2C[C@H](N=[N+]=[N-])[C@@H](CO)O2)c(=O)[nH]c1=O [AZT, 3′-Azido-3′-deoxythymidine] |  |  |  |  |  |  |  |  |  |  |  |  |  |  |  |  |  |  |  | EC50 (HIV-1LAI W88G; Human immunodeficiency virus 1, MT2, Table 8, read-out: AZT EC50): 0.019 ± 0.013 µM; Fold resistance (HIV-1LAI W88G; Table 8, W88G relative to wild type virus): 0.9 |
| CCCCCCCCCCCCCCCCCCOC[C@H](COP(=O)(O)C(=O)O)OCC [EB-PFA, 1-O-octadecyl-2-O-ethyl-sn-glycero-3-PFA] | 1340 nM | (1.9) | 1210 ± 850 nM | 410 nM | (0.5) | 300 ± 350 nM | 480 nM | 800 nM | (1.4) | 880 ± 140 nM | 200 ± 200 nM | (0) | 0.2 ± 0.3 µM | 0.64 (7.6) | 6.8 µM | 5.21 µM | 2.02 µM | 0.54 (2.6) |  | Fold resistance (HIV-1LAI W88G; Example 6, recombinant virus encoding W88G): 9.4 fold |
| CCCCCCCCCCCCCCCCCCOC[C@@H](O)COP(=O)(O)C(=O)O [B-PFA, 1-O-octadecyl-sn-glycero-3-PFA] | 4250 nM | (2.5) | 4450 ± 2260 nM | 1250 nM | (0.5) | 940 ± 1080 nM | 1490 nM | 2720 nM | (2.2) | 3870 ± 2360 nM | 2600 ± 1500 nM | (1.6) | 4.1 ± 1.2 µM | (>17.2) | > 30 µM | > 30 µM | 6.2 µM | 0.85 (2.4) | (>17.2) |  |
| O=C(O)P(=O)(O)O [PFA, phosphonoformate, reference compound] |  | (1.9) |  |  | (0.8) |  |  |  | (1.1) |  |  | (1.1) |  | 14.28 (11.7) |  |  |  | 17.50 (2.4) | 46.24 (6.9) | EC50 (HIV-1LAI L74V; [6]): 37400 nM; EC50 (HIV-1LAI L74V; Human immunodeficiency virus 1, MT2, Table 3, mean ± SD): 32700 ± 9000 nM; EC50 (HIV-1LAI M41L/T215Y; [6]): 16200 nM; EC50 (HIV-1LAI M41L/T215Y; Human immunodeficiency virus 1, MT2, Table 5, mean ± SD): 13900 ± 4140 nM; EC50 (HIV-1LAI 4XAZT/K103N; Human immunodeficiency virus 1, MT2, Table 1, AZT/K103N, MOI 0.01): 18600 nM; EC50 (HIV-1LAI 4XAZT/K103N; Human immunodeficiency virus 1, MT2, Table 5, 4XAZT/K103N, mean ± SD, read-out: EC50): 19200 ± 8850 nM; EC50 (NL4-3 (wild type virus); Human immunodeficiency virus 1, NL43, MT2, Table 4, mean ± SD): 15100 ± 6100 nM; EC50 [1, 7]: 13.2 ± 12.8 µM; EC50 (HIV-1LAI W88G; Human immunodeficiency virus 1, MT2, Table 7, read-out: EC50): 152 µM; Fold resistance (HIV-1LAI W88G; {}): 6.2 fold; EC50 (HIV-1LAI E89K; [7]): 90.2 µM; EC50 [2, 7]: 43.1 µM |
| CCCCCCCCCCCCCCCCCCOC[C@H](COP(=O)(O)C(=O)O)OC [MB-PFA, 1-O-octadecyl-2-O-methyl-sn-glycero-3-PFA] | 520 nM | (1.8) | 880 ± 630 nM | 130 nM | (0.4) | 180 ± 110 nM | 540 nM |  | (1.2) | 600 ± 380 nM | 2300 ± 1900 nM | (0) |  | 4.42 (7.6) | 5.88 µM | 7.21 µM |  | 0.14 (2.7) | 0.12 (9.4) |  |
